Laboratory results: ChEMBL document CHEMBL5723379, “Affinity On-target Cellular Literature for EUbOPEN Chemogenomic Library” (2024)
Values belong to the molecule of their own block, whether it stands above or below them.

How the values were obtained:
[1] = target: Sodium- and chloride-dependent glycine transporter 1 (Homo sapiens, UniProt P48067); test: Affinity On-target Cellular interaction: (Inhibition of radiolabelled [3H]glycine uptake in human SK-N-MC cells) EUB0002599a SLC6A9; type: functional, cell-based; set-up: mode of action Inhibitor, recommended concentration 1 uM
[2] = target: T1, Oxysterols receptor LXR-beta (Homo sapiens, UniProt P55055); test: Affinity On-target Cellular interaction: (Reporter gene assay (HEK293T cells)) EUB0001167a NR1H2; type: functional, cell-based, HEK-293T; set-up: mode of action Agonist, recommended concentration 1 uM
T1 sequence (P55055 whole entry): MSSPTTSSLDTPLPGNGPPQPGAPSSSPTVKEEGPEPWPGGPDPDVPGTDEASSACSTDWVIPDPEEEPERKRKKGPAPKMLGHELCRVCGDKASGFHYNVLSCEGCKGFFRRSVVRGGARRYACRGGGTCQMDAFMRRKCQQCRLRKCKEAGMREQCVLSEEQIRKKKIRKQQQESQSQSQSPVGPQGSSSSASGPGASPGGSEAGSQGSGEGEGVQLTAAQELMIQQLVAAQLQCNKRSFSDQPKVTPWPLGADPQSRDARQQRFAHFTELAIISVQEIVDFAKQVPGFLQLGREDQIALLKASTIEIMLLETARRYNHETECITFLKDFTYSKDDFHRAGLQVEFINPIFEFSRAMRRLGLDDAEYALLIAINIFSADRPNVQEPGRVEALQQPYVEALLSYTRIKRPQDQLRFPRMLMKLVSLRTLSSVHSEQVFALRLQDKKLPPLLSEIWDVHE

[3] = target: T2, Oxysterols receptor LXR-alpha (Homo sapiens, UniProt Q13133); test: Affinity On-target Cellular interaction: (Reporter gene assay (HEK293T cells)) EUB0001166a NR1H3; type: functional, cell-based, HEK-293T; set-up: mode of action Agonist, recommended concentration 1 uM
T2 sequence (Q13133 whole entry): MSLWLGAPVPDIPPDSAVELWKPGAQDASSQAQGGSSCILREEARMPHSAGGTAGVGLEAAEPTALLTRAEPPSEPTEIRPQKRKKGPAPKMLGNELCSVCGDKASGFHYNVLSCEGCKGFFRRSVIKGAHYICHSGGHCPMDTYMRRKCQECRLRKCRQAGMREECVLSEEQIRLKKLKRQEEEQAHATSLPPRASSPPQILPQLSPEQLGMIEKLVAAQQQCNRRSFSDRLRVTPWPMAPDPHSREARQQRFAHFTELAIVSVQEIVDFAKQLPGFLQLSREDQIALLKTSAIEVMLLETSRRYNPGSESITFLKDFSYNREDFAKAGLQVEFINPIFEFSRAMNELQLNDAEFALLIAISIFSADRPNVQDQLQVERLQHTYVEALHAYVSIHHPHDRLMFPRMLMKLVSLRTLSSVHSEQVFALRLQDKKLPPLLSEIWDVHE

[4] = target: T1, Oxysterols receptor LXR-beta; test: Affinity On-target Cellular interaction: (Reporter gene assay (HEK293T cells)) EUB0001166a NR1H2; type: functional, cell-based, HEK-293T; set-up: mode of action Agonist, recommended concentration 1 uM
[5] = target: Nuclear receptor subfamily 1 group I member 2 (Homo sapiens, UniProt O75469); test: Affinity On-target Cellular interaction: (Reporter gene assay (HEK293T cells)) EUB0002358a NR1I2; type: functional, cell-based, HEK-293T; set-up: mode of action Agonist, recommended concentration 10 uM
[6] = target: T3, Peroxisome proliferator-activated receptor delta (Homo sapiens, UniProt Q03181); test: Affinity On-target Cellular interaction: (Reporter gene assay (HEK293T cells)) EUB0001483aCl PPARD; type: functional, cell-based, HEK-293T; set-up: mode of action Antagonist, recommended concentration 10 uM
T3 sequence (Q03181 whole entry): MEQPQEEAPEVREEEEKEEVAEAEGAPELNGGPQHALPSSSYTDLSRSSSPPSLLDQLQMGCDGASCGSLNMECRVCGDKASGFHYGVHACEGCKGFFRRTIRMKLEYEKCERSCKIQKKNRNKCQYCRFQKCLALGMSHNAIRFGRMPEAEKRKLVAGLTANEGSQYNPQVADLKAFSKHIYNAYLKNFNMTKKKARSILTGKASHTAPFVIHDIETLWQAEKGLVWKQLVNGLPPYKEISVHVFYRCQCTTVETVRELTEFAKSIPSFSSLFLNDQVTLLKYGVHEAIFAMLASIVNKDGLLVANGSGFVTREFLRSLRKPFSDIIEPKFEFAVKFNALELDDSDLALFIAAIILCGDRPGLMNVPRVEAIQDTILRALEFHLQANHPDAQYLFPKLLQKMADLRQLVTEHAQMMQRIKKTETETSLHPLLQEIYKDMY

[7] = target: Thyroid hormone receptor beta (Homo sapiens, UniProt P10828); test: Affinity On-target Cellular interaction: (Reporter gene assay (HEK293T cells)) EUB0002355a THRB; type: functional, cell-based, HEK-293T; set-up: mode of action Antagonist, recommended concentration 3 uM
Histone deacetylase 1 = Histone deacetylase 1 (Homo sapiens, UniProt Q13547); test: Affinity On-target Cellular interaction: (Inhibition of enzyme activity in 293T cells transfected with vector alone) EUB0002519a HDAC1; type: functional, cell-based, HEK-293T; set-up: mode of action Inhibitor, recommended concentration 1 uM
Histone deacetylase 2 = Histone deacetylase 2 (Homo sapiens, UniProt Q92769); test: Affinity On-target Cellular interaction: (Inhibition of enzyme activity in 293T cells transfected with vector alone) EUB0002519a HDAC2; type: functional, cell-based, HEK-293T; set-up: mode of action Inhibitor, recommended concentration 1 uM
[8] = target: T4, Sodium-dependent neutral amino acid transporter B(0)AT1 (Homo sapiens, UniProt Q695T7); test: Affinity On-target Cellular interaction: (Fluorescence imaging plate reader (FLIPR) membrane potential (FMP) assay, MDCK cells) EUB0002537a SLC6A19; type: functional, cell-based; set-up: mode of action Inhibitor, recommended concentration 1 uM
[9] = target: T4, Sodium-dependent neutral amino acid transporter B(0)AT1; test: Affinity On-target Cellular interaction: (Stable isotope uptake assay, MDCK cells) EUB0002537a SLC6A19; type: functional, cell-based; set-up: mode of action Inhibitor, recommended concentration 1 uM
[10] = target: Sodium/glucose cotransporter 2 (Homo sapiens, UniProt P31639); test: Affinity On-target Cellular interaction: (AMG uptake assay in presence of 25% human plasma, 293.ETN cells) EUB0002515a SLC5A2; type: functional, HEK293; set-up: mode of action Inhibitor, recommended concentration 1 uM
[11] = target: Nuclear receptor subfamily 1 group D member 1 (Homo sapiens, UniProt P20393); test: Affinity On-target Cellular interaction: (Reporter gene assay (HEK293T cells)) EUB0001153a NR1D1; type: functional, cell-based, HEK-293T; set-up: mode of action Antagonist, recommended concentration 10 uM
Bile acid receptor = Bile acid receptor (Homo sapiens, UniProt Q96RI1); test: Affinity On-target Cellular interaction: (Reporter gene assay (HEK293T cells)) EUB0001168a NR1H4; type: functional, cell-based, HEK-293T; set-up: mode of action Agonist, recommended concentration 1 uM
[12] = target: Monoacylglycerol lipase ABHD6 (Homo sapiens, UniProt Q9BV23)
Chain of Monoacylglycerol lipase ABHD6 (Q9BV23 whole entry): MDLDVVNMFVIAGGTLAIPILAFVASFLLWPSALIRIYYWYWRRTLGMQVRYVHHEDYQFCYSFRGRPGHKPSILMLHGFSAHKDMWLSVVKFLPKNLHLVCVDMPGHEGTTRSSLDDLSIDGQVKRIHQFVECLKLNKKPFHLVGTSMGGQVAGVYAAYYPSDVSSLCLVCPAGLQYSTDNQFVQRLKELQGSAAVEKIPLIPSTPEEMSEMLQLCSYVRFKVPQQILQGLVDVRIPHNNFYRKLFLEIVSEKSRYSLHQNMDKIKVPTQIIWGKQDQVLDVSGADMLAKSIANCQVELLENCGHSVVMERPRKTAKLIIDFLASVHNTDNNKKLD

T4 sequence (Q695T7 whole entry): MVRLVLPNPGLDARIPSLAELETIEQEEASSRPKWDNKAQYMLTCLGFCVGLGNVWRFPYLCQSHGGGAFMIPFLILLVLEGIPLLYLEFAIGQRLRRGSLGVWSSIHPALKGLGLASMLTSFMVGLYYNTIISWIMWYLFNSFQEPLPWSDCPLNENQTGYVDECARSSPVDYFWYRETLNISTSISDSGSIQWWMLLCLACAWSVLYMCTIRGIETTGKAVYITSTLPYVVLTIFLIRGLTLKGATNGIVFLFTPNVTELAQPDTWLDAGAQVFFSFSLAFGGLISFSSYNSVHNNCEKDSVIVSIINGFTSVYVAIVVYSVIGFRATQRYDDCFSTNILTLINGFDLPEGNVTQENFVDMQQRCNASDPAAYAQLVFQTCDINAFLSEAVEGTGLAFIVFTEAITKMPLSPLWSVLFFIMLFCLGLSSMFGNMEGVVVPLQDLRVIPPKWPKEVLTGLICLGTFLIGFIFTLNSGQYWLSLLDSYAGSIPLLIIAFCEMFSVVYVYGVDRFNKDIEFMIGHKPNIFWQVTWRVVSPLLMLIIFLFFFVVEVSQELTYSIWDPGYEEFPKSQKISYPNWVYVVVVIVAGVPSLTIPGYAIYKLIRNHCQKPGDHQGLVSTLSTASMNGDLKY
Chain of Nuclear receptor subfamily 1 group I member 2 (O75469 whole entry): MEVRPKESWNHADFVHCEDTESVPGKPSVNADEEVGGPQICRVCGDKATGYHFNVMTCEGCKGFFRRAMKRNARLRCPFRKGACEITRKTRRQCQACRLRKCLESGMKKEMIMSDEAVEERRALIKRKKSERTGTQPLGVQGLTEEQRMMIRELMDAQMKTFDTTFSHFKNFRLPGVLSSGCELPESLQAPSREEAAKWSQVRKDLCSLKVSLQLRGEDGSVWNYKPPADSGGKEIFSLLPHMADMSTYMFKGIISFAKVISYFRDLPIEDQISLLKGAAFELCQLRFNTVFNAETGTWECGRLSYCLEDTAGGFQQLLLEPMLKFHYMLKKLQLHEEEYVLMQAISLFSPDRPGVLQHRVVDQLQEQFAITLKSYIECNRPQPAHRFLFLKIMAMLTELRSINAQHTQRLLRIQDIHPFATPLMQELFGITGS
Chain of Nuclear receptor subfamily 1 group D member 1 (P20393 whole entry): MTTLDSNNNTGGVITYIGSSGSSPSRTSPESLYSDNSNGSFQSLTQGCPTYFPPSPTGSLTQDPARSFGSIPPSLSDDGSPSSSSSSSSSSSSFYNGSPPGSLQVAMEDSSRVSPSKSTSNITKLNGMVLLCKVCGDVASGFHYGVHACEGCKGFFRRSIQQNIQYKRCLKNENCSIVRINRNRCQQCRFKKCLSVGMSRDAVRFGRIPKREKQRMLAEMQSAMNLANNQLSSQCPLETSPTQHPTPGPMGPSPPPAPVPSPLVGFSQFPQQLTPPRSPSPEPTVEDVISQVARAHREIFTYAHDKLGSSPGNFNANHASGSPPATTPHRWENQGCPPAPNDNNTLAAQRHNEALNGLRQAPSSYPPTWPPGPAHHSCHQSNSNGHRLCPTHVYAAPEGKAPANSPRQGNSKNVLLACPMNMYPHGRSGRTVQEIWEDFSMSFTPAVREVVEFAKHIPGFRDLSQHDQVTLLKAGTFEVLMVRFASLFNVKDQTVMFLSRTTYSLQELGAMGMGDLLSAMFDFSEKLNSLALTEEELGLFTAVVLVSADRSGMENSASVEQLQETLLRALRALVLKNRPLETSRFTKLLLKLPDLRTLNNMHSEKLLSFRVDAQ
Chain of Sodium- and chloride-dependent glycine transporter 1 (P48067 whole entry): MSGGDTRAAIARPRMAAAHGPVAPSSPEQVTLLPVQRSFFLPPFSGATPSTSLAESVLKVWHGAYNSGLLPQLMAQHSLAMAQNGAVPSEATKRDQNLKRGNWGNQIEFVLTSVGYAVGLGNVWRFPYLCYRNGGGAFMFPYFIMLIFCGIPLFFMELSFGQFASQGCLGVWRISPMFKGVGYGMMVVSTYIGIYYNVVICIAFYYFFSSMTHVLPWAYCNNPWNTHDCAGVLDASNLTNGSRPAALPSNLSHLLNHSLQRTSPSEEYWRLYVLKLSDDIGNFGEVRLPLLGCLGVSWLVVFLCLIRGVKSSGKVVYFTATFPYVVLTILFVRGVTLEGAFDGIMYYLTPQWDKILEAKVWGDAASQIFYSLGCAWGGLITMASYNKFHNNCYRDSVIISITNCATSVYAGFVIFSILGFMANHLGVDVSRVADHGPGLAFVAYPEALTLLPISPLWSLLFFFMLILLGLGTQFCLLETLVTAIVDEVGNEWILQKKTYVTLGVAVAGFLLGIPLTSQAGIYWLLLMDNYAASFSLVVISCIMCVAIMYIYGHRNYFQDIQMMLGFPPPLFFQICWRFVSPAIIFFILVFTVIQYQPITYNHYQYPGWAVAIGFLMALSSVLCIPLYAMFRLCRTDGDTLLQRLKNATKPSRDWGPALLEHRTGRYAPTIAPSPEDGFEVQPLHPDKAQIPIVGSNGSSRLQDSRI
Chain of Histone deacetylase 1 (Q13547 whole entry): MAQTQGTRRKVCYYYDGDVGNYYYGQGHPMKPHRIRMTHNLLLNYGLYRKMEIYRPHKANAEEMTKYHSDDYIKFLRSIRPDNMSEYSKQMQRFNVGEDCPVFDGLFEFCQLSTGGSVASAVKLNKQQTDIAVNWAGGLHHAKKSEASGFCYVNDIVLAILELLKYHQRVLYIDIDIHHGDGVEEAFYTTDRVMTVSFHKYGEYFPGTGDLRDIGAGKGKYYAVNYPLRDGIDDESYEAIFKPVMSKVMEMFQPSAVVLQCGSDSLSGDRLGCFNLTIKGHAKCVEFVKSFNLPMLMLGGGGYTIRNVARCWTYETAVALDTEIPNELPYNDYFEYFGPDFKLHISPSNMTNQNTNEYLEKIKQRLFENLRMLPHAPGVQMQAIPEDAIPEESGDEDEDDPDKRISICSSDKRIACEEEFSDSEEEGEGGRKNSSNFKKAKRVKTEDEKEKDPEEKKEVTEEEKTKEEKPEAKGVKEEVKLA
Chain of Thyroid hormone receptor beta (P10828 whole entry): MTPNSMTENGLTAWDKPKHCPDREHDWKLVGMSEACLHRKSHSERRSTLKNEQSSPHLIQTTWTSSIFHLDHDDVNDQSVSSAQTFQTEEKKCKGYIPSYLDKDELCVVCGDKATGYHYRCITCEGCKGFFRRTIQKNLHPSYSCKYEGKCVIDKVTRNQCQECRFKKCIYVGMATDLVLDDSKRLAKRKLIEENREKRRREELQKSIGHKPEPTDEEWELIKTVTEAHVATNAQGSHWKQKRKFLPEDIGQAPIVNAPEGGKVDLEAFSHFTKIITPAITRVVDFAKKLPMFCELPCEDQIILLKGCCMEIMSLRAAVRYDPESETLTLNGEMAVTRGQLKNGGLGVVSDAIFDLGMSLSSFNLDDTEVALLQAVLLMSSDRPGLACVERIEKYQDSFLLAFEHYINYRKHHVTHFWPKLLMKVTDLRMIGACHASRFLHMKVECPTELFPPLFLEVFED
Chain of Histone deacetylase 2 (Q92769 whole entry): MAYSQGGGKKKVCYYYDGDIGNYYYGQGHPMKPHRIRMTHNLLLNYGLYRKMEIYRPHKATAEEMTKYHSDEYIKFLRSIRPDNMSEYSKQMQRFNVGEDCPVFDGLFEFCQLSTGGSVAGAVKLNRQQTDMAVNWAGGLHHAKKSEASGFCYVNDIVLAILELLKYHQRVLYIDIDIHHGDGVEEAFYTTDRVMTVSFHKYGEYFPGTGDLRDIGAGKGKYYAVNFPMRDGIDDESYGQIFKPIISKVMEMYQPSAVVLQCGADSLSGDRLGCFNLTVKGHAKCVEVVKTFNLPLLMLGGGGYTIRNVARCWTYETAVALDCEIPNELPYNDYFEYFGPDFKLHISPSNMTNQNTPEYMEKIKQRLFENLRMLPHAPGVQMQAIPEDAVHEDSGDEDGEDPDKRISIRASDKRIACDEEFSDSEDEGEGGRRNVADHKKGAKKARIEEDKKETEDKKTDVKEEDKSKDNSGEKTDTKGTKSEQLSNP
Chain of Bile acid receptor (Q96RI1 whole entry): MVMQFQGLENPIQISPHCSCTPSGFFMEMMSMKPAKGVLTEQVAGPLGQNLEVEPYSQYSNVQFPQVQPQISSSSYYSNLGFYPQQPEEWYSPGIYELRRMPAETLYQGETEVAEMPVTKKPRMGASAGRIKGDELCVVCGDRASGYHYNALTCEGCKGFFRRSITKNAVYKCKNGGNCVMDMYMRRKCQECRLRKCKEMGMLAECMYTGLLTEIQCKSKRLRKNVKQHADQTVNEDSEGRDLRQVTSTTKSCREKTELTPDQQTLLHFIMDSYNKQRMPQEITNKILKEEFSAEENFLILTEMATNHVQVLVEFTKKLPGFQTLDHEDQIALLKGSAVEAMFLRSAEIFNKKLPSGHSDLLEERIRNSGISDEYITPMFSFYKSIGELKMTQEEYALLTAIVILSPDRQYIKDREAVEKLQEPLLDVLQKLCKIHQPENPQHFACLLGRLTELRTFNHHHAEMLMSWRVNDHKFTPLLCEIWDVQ

Structure (SMILES): C[C@@H](Oc1ccc(S(C)(=O)=O)cc1C(=O)N1C[C@@H]2C[C@]2(c2cc(C(F)(F)F)on2)C1)C(F)(F)F [ICLEPERTIN]
- IC50 [1]: 5 nM

Structure (SMILES): CC(=O)Oc1ccc2c(c1)[C@@]1(C)CCC[C@](C)(C(=O)OC(=O)[C@@]3(C)CCC[C@]4(C)c5cc(OC(C)=O)ccc5CC[C@@H]34)[C@@H]1CC2 [ACETYL PODOCARPIC ACID ANHYDRIDE]
- EC50 [2]: 1 nM

Structure (SMILES): O=c1[nH]c2ccccc2n1CCCN1CCN(C(c2ccccc2)c2ccccc2)CC1 [OXATOMIDE]
- EC50 [5]: 6000 nM

Structure (SMILES): CCNC(=O)/C=C/c1cccc(Br)c1 [CINROMIDE]
- IC50 [8]: 280 nM
- IC50 [9]: 370 nM

Structure (SMILES): OC[C@H]1O[C@@H](c2ccc(Cl)c(Cc3ccc(OCCOC4CC4)cc3)c2)[C@H](O)[C@@H](O)[C@@H]1O [BEXAGLIFLOZIN]
- IC50 [10]: 2 nM

Structure (SMILES): O=C(c1cccc(-c2ccc(-c3cn(C(=O)N4CCCCC4c4ccccc4)nn3)cc2)c1)N1CCCCC1 (stereo not given)
- IC50 [12]: 0.21 nM

Continued, values first:

- EC50 [3]: 200 nM
- EC50 [4]: 300 nM
Structure (SMILES): CC(C)(O)c1cn(-c2ccc(-c3cccc(S(C)(=O)=O)c3)cc2)c(C(C)(C)c2ccccc2Cl)n1 [BMS-779788]

- IC50 [6]: 1800 nM
Structure (SMILES): CN1CCN(c2ccc(/C=C(\C#N)c3ccccc3Br)cc2)CC1

- IC50 [7]: 2000 nM
Structure (SMILES): Cc1oc2ccccc2c1Cc1cc(I)c(OCC(=O)O)c(I)c1

- IC50 (Histone deacetylase 1): 300 nM
- IC50 (Histone deacetylase 2): 300 nM
Structure (SMILES): Nc1ccc(-c2cccs2)cc1NC(=O)c1ccc(NC=O)cc1

- IC50 [11]: 470 nM
Structure (SMILES): CCOC(=O)C1Cc2ccccc2CN1C(=O)c1ccc(SC)s1 (stereo not given)

- EC50 (Bile acid receptor): 40 nM
Structure (SMILES): O=C(O)c1ccnc(N2CC(O)(c3ccc(OCc4c(-c5c(Cl)cccc5Cl)noc4C4CC4)cc3Cl)C2)c1 [CILOFEXOR]
